Measured values taken from publication PMC6591251, “Discovery of potent necroptosis inhibitors targeting RIPK1 kinase activity for the treatment of inflammatory disorder and cancer metastasis” (Cell Death & Disease, 2019).

Columns and labels:
Test in all cases: RBC kinase panel
Type in all cases: biochemical
Details in all cases: ATP 10 μM, Data1, Data2
[1] = biological target: T1, NEK4 (Homo sapiens, UniProt P51957)
T1 construct: purchased Reaction Biology Corporation
Procedure, shortened: (§1)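 Profiling covered 369 human kinases, each assayed in duplicate with the compound present at 1 μM and ATP at 10 μM.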

[2] = biological target: T2, FLT3 (Homo sapiens, UniProt P36888)
T2 construct: purchased Reaction Biology Corporation
Procedure, shortened: as §1

[3] = biological target: T3, LOK/STK10 (Homo sapiens, UniProt O94804)
T3 construct: purchased Reaction Biology Corporation
Procedure, shortened: as §1

[4] = biological target: T4, IKKa/CHUK (Homo sapiens, UniProt O15111)
T4 construct: purchased Reaction Biology Corporation
Procedure, shortened: as §1

[5] = biological target: T5, BRSK2 (Homo sapiens, UniProt Q8IWQ3)
T5 construct: purchased Reaction Biology Corporation
Procedure, shortened: as §1

[6] = biological target: T6, P38a/MAPK14 (Homo sapiens, UniProt Q16539)
T6 construct: purchased Reaction Biology Corporation
Procedure, shortened: as §1

[7] = biological target: T7, TSSK2 (Homo sapiens, UniProt Q96PF2)
T7 construct: purchased Reaction Biology Corporation
T7 sequence (Q96PF2 whole entry): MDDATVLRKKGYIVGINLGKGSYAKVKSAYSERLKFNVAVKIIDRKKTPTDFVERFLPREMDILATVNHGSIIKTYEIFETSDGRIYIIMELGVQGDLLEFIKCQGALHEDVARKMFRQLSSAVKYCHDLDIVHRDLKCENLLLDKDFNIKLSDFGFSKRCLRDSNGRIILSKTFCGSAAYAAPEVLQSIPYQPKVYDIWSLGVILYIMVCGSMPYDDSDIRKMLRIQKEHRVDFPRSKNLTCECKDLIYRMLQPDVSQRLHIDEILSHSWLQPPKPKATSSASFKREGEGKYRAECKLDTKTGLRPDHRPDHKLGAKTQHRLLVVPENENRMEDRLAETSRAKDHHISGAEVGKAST
Procedure, shortened: as §1

[8] = biological target: T8, MSSK1/STK23 (Homo sapiens, UniProt Q9UPE1)
T8 construct: purchased Reaction Biology Corporation
Procedure, shortened: as §1

[9] = biological target: T9, CDK2/cyclin A (Homo sapiens, UniProt P24941)
T9 construct: purchased Reaction Biology Corporation
Procedure, shortened: as §1

[10] = biological target: T10, CDK3/cyclin E (Homo sapiens, UniProt Q00526)
T10 construct: purchased Reaction Biology Corporation
Procedure, shortened: as §1

[11] = biological target: T11, PKAcb (Homo sapiens, UniProt P22694)
T11 construct: purchased Reaction Biology Corporation
Procedure, shortened: as §1

[12] = biological target: T12, EPHB4 (Homo sapiens, UniProt P54760)
T12 construct: purchased Reaction Biology Corporation
Procedure, shortened: as §1

[13] = biological target: T13, MEK2 (Homo sapiens, UniProt P36507)
T13 construct: purchased Reaction Biology Corporation
T13 sequence (P36507 whole entry): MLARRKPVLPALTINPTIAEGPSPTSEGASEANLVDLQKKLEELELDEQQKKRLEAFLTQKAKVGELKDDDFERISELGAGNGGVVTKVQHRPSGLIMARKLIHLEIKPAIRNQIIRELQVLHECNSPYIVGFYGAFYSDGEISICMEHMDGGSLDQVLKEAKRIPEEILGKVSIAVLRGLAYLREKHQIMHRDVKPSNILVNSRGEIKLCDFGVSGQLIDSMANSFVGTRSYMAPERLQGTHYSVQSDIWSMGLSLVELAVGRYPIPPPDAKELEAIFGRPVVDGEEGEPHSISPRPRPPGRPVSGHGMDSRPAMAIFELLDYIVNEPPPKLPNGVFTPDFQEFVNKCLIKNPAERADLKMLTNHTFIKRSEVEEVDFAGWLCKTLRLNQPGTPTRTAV
Procedure, shortened: as §1

[14] = biological target: T14, GRK1 (Homo sapiens, UniProt Q15835)
T14 construct: purchased Reaction Biology Corporation
Procedure, shortened: as §1

[15] = biological target: T15, STK38/NDR1 (Homo sapiens, UniProt Q15208)
T15 construct: purchased Reaction Biology Corporation
T15 sequence (Q15208 whole entry): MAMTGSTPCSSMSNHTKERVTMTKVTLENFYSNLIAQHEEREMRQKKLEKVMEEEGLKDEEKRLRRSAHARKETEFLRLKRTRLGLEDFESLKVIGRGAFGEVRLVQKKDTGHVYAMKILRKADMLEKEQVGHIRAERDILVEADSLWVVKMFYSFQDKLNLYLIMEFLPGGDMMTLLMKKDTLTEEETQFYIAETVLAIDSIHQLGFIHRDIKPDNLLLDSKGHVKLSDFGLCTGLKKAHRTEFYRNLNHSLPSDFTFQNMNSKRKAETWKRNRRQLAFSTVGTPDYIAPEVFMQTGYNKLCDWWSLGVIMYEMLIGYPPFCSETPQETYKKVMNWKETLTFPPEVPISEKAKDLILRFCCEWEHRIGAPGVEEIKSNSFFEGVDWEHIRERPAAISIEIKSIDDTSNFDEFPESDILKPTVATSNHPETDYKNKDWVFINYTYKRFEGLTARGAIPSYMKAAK
Procedure, shortened: as §1

[16] = biological target: T16, PKG1a (Homo sapiens, UniProt Q13976)
T16 construct: purchased Reaction Biology Corporation
Procedure, shortened: as §1

[17] = biological target: T17, ERN1/IRE1 (Homo sapiens, UniProt O75460)
T17 construct: purchased Reaction Biology Corporation
T17 sequence (O75460 19-977): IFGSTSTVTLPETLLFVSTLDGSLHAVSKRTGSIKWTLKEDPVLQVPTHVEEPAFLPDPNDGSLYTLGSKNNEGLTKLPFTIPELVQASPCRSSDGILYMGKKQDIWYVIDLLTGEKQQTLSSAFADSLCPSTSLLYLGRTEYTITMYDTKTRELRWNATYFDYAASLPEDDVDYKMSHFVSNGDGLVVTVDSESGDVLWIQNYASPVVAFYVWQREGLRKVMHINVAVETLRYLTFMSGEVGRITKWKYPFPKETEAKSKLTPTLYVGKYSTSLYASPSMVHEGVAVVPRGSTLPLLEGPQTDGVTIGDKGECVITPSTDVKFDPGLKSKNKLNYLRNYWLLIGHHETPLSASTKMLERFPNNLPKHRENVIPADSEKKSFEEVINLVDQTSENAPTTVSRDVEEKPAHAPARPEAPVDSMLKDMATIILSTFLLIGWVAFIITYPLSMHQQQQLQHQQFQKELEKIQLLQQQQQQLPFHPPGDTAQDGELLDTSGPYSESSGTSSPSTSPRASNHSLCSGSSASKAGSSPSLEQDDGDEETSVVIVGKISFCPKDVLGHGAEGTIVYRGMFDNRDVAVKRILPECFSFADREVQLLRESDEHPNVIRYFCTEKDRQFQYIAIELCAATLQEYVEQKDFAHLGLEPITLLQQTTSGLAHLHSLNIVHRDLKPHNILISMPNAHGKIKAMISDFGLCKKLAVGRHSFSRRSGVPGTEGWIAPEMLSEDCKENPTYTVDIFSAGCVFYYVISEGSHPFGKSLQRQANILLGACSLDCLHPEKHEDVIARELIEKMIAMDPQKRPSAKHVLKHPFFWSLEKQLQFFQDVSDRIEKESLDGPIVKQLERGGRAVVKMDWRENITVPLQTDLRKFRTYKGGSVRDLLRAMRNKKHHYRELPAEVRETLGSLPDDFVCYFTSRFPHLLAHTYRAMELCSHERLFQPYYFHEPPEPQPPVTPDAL
Procedure, shortened: as §1

[18] = biological target: T18, ITK (Homo sapiens, UniProt Q08881)
T18 construct: purchased Reaction Biology Corporation
Procedure, shortened: as §1

[19] = biological target: T19, DYRK1/DYRK1A (Homo sapiens, UniProt Q13627)
T19 construct: purchased Reaction Biology Corporation
Procedure, shortened: as §1

[20] = biological target: T20, SRPK2 (Homo sapiens, UniProt P78362)
T20 construct: purchased Reaction Biology Corporation
Procedure, shortened: as §1

[21] = biological target: T21, PLK2 (Homo sapiens, UniProt Q9NYY3)
T21 construct: purchased Reaction Biology Corporation
Procedure, shortened: as §1

[22] = biological target: T22, MARK3 (Homo sapiens, UniProt P27448)
T22 construct: purchased Reaction Biology Corporation
Procedure, shortened: as §1

[23] = biological target: T23, GRK2 (Homo sapiens, UniProt P25098)
T23 construct: purchased Reaction Biology Corporation
Procedure, shortened: as §1

[24] = biological target: T24, IKKe/IKBKE (Homo sapiens, UniProt Q14164)
T24 construct: purchased Reaction Biology Corporation
Procedure, shortened: as §1

[25] = biological target: T25, CAMKK2 (Homo sapiens, UniProt Q96RR4)
T25 construct: purchased Reaction Biology Corporation
Procedure, shortened: as §1

[26] = biological target: T26, STK22D/TSSK1 (Homo sapiens, UniProt Q9BXA7)
T26 construct: purchased Reaction Biology Corporation
T26 sequence (Q9BXA7 whole entry): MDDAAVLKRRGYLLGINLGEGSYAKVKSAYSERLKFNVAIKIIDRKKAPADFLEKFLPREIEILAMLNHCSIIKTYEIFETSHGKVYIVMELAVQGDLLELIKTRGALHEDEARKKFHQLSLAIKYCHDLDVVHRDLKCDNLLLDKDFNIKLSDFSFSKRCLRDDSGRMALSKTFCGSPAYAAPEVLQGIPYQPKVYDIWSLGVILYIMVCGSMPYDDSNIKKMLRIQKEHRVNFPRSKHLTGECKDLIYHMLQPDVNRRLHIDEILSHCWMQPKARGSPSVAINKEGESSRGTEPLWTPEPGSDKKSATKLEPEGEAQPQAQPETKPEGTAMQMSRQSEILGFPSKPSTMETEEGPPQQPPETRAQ
Procedure, shortened: as §1

[27] = biological target: T27, AKT2 (Homo sapiens, UniProt P31751)
T27 construct: purchased Reaction Biology Corporation
Procedure, shortened: as §1

[28] = biological target: T28, JAK1 (Homo sapiens, UniProt P23458)
T28 construct: purchased Reaction Biology Corporation
T28 sequence (P23458 whole entry): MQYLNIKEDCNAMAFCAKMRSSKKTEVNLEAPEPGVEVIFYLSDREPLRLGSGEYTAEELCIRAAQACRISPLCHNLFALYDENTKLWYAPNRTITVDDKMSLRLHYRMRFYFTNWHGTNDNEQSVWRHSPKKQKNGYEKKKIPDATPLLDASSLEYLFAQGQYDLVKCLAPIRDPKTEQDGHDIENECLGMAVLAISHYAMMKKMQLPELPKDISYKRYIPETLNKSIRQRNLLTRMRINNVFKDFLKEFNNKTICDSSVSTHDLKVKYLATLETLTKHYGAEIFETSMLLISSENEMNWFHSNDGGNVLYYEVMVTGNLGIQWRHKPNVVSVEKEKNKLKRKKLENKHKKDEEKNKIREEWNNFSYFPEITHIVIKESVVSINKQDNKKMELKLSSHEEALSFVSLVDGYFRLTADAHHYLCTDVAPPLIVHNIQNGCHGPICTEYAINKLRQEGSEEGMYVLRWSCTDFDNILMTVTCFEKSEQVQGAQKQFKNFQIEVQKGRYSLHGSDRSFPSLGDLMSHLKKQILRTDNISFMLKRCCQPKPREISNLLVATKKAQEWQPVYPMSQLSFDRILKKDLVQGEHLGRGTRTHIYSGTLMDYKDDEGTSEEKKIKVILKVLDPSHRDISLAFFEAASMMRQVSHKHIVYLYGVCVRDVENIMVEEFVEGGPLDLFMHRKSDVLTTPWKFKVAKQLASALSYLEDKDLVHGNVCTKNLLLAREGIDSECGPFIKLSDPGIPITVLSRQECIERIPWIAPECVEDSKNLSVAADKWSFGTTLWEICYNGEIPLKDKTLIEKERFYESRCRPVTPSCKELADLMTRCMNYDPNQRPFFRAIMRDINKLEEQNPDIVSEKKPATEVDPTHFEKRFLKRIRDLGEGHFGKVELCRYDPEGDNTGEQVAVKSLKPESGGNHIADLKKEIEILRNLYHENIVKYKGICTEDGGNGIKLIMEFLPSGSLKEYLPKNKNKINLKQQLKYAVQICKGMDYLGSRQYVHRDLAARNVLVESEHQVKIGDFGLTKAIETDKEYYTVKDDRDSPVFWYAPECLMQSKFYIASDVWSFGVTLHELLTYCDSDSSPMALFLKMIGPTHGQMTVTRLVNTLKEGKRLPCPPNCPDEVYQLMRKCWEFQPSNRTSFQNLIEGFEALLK
Procedure, shortened: as §1

[29] = biological target: T29, CHK1 (Homo sapiens, UniProt O14757)
T29 construct: purchased Reaction Biology Corporation
T29 sequence (O14757 whole entry): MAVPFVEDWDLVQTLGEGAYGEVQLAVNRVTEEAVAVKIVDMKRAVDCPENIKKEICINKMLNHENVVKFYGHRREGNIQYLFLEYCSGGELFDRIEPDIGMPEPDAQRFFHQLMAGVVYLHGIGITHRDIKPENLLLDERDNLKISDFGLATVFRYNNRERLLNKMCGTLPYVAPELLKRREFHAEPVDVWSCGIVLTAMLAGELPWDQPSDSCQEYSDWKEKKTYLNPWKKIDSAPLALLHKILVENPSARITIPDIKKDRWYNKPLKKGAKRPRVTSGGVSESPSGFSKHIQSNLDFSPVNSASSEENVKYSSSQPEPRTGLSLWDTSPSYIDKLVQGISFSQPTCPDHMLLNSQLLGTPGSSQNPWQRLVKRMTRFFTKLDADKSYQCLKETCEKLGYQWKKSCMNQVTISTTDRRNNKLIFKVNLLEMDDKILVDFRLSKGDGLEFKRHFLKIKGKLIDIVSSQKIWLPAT
Procedure, shortened: as §1

[30] = biological target: T30, PKD2/PRKD2 (Homo sapiens, UniProt Q9BZL6)
T30 construct: purchased Reaction Biology Corporation
Procedure, shortened: as §1

[31] = biological target: T31, IRAK1 (Homo sapiens, UniProt P51617)
T31 construct: purchased Reaction Biology Corporation
T31 sequence (P51617 whole entry): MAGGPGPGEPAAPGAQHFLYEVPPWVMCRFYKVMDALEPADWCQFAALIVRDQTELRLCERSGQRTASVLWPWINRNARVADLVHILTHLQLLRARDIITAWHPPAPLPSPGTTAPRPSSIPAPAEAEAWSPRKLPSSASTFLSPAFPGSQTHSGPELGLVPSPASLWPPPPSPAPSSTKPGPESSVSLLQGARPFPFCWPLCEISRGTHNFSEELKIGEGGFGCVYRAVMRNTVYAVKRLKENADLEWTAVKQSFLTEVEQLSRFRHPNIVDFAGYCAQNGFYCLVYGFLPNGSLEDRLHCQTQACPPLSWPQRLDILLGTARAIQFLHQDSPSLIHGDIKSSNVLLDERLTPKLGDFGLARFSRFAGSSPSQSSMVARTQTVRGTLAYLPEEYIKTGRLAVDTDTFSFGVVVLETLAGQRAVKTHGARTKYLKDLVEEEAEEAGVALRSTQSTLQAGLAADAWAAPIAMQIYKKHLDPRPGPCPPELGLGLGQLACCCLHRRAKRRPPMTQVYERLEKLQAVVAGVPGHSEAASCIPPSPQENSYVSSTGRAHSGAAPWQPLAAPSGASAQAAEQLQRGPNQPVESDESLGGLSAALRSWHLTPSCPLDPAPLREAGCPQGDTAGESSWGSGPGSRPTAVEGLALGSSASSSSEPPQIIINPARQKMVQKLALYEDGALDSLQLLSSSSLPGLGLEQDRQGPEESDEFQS
Procedure, shortened: as §1

[32] = biological target: T32, EPHA4 (Homo sapiens, UniProt P54764)
T32 construct: purchased Reaction Biology Corporation
Procedure, shortened: as §1

[33] = biological target: T33, MEK5 (Homo sapiens, UniProt Q13163)
T33 construct: purchased Reaction Biology Corporation
Procedure, shortened: as §1

CC(=O)Nc1nc2ccc(-c3cnc(C)c(NC(=O)OC4CCCCC4)c3)cc2s1 [PK68, cyclohexyl (5-(2-acetamidobenzo[d]thiazol-6-yl)-2-methylpyridin-3-yl)carbamate]
Activity% ([1]; 1 μM): 97.97%
activity at 1 µM [1]: 98.9%
Activity% ([2]; 1 μM): 57.70%
activity at 1 µM [2]: 58%
Activity% ([3]; 1 μM): 97.50%
activity at 1 µM [3]: 97.9%
Activity% ([4]; 1 μM): 107.86%
activity at 1 µM [4]: 117%
Activity% ([5]; 1 μM): 98.88%
activity at 1 µM [5]: 100%
Activity% ([6]; 1 μM): 102.59%
activity at 1 µM [6]: 106%
Activity% ([7]; 1 μM): 97.17%
activity at 1 µM [7]: 98.1%
Activity% ([8]; 1 μM): 100.79%
activity at 1 µM [8]: 103%
Activity% ([9]; 1 μM): 97.94%
activity at 1 µM [9]: 98.5%
Activity% ([10]; 1 μM): 91.48%
activity at 1 µM [10]: 91.7%
Activity% ([11]; 1 μM): 100.88%
activity at 1 µM [11]: 103%
Activity% ([12]; 1 μM): 99.18%
activity at 1 µM [12]: 101%
Activity% ([13]; 1 μM): 97.14%
activity at 1 µM [13]: 97.2%
Activity% ([14]; 1 μM): 99.42%
activity at 1 µM [14]: 100%
Activity% ([15]; 1 μM): 96.05%
activity at 1 µM [15]: 98.9%
Activity% ([16]; 1 μM): 90.22%
activity at 1 µM [16]: 90.3%
Activity% ([17]; 1 μM): 88.33%
activity at 1 µM [17]: 88.7%
Activity% ([18]; 1 μM): 88.47%
activity at 1 µM [18]: 88.6%
Activity% ([19]; 1 μM): 95.93%
activity at 1 µM [19]: 97.4%
Activity% ([20]; 1 μM): 100.99%
activity at 1 µM [20]: 101%
Activity% ([21]; 1 μM): 102.02%
activity at 1 µM [21]: 102%
Activity% ([22]; 1 μM): 103.78%
activity at 1 µM [22]: 104%
Activity% ([23]; 1 μM): 99.02%
activity at 1 µM [23]: 101%
Activity% ([24]; 1 μM): 92.74%
activity at 1 µM [24]: 98.2%
Activity% ([25]; 1 μM): 79.89%
activity at 1 µM [25]: 80.1%
Activity% ([26]; 1 μM): 103.75%
activity at 1 µM [26]: 104%
Activity% ([27]; 1 μM): 96.89%
activity at 1 µM [27]: 97.5%
Activity% ([28]; 1 μM): 99.20%
activity at 1 µM [28]: 99.5%
Activity% ([29]; 1 μM): 87.21%
activity at 1 µM [29]: 87.3%
Activity% ([30]; 1 μM): 90.63%
activity at 1 µM [30]: 93.9%
Activity% ([31]; 1 μM): 90.54%
activity at 1 µM [31]: 92.5%
Activity% ([32]; 1 μM): 92.78%
activity at 1 µM [32]: 92.8%
Activity% ([33]; 1 μM): 97.06%
activity at 1 µM [33]: 97.5%
